Results published in patent publication US9550772B2, “Azaindole derivatives as multi kinase inhibitors” (ORIBASE PHARMA, priority 2012, dated 2017).
Read-outs that look alike come from different tables or passages of the source.

Columns and labels:
BRAF = target: T1, BRAF (Homo sapiens, UniProt P15056); assay: In vitro kinase assay (Z'-LYTE, Invitrogen); format: biochemical; conditions: compound at 100 nM, ATP Km apparent, read-out: % of inhibition of the kinase compared to the control
T1 construct: purchased Invitrogen
T1 sequence (P15056 whole entry): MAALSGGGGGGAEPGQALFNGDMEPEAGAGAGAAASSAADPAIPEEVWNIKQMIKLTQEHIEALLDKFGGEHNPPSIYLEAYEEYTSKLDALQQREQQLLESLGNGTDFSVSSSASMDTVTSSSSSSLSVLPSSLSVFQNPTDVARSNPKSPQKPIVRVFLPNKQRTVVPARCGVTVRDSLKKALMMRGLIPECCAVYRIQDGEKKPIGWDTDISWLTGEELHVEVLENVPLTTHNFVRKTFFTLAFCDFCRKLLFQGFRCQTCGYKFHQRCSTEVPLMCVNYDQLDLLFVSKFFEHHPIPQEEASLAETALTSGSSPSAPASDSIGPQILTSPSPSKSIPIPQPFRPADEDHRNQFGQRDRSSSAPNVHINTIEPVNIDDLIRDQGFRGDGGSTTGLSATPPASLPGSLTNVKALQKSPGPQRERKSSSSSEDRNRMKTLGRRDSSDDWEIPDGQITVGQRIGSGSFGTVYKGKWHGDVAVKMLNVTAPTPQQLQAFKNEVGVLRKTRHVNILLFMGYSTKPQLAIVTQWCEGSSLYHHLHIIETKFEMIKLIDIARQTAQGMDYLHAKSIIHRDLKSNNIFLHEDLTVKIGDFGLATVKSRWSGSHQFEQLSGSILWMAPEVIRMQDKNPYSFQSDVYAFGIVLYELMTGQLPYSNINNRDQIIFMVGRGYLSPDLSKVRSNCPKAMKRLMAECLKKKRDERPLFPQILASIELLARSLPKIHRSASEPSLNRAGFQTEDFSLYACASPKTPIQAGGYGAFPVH
Summary of the method: (§1)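 Compounds were tested at 100 nM in 1% DMSO, in 50 mM HEPES pH 7.5 buffer with MgCl2, EGTA and BRIJ-35, and ATP at its predetermined apparent Km. Inhibition was derived from the coupled-enzyme FRET emission ratio, which reflects protease-resistant phosphorylated peptide.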

EGFR (ErbB1) = target: T2, EGFR (ErbB1) (Homo sapiens, UniProt P00533); assay: In vitro kinase assay (Z'-LYTE, Invitrogen); format: biochemical; conditions: compound at 100 nM, ATP Km apparent, read-out: % of inhibition of the kinase compared to the control
T2 construct: purchased Invitrogen
T2 sequence (P00533 25-1210): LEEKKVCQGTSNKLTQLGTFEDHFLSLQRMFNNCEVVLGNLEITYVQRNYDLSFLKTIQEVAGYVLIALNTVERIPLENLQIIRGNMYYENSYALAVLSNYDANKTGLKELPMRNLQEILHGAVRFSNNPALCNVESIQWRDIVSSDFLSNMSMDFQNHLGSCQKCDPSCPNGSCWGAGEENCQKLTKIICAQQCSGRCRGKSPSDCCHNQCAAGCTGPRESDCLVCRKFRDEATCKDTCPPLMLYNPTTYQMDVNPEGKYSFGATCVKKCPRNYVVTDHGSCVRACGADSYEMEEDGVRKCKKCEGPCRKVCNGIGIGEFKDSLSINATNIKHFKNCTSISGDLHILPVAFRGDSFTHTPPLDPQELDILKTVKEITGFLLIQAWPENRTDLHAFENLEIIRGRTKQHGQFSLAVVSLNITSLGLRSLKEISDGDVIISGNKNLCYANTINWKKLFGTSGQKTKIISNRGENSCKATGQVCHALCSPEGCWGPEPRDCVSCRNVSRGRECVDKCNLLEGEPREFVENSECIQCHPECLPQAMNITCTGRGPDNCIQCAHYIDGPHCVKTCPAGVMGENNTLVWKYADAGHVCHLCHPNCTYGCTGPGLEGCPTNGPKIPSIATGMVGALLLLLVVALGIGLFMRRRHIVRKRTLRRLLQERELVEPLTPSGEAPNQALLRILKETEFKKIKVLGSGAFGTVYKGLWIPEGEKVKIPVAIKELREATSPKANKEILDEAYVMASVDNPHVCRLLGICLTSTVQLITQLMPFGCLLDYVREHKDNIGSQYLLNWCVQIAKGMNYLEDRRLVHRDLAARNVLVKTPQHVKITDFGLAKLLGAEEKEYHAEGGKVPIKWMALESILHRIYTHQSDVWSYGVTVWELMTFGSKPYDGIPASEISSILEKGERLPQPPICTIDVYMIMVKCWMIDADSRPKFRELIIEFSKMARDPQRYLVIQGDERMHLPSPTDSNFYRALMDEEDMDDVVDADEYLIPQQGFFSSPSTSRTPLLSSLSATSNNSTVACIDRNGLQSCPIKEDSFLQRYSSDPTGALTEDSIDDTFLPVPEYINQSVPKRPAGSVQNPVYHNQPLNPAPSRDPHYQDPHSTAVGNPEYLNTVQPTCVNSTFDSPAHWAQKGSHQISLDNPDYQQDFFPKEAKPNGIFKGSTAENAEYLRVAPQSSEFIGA
Summary of the method: as §1

EGFR (ErbB1) T790M L858R = target: T3, EGFR (ErbB1) T790M L858R (Homo sapiens, UniProt P00533, L858R/T790M); assay: In vitro kinase assay (Z'-LYTE, Invitrogen); format: biochemical; conditions: compound at 100 nM, ATP Km apparent, read-out: % of inhibition of the kinase compared to the control
T3 construct: purchased Invitrogen
T3 sequence (P00533 25-1210 T790M/L858R): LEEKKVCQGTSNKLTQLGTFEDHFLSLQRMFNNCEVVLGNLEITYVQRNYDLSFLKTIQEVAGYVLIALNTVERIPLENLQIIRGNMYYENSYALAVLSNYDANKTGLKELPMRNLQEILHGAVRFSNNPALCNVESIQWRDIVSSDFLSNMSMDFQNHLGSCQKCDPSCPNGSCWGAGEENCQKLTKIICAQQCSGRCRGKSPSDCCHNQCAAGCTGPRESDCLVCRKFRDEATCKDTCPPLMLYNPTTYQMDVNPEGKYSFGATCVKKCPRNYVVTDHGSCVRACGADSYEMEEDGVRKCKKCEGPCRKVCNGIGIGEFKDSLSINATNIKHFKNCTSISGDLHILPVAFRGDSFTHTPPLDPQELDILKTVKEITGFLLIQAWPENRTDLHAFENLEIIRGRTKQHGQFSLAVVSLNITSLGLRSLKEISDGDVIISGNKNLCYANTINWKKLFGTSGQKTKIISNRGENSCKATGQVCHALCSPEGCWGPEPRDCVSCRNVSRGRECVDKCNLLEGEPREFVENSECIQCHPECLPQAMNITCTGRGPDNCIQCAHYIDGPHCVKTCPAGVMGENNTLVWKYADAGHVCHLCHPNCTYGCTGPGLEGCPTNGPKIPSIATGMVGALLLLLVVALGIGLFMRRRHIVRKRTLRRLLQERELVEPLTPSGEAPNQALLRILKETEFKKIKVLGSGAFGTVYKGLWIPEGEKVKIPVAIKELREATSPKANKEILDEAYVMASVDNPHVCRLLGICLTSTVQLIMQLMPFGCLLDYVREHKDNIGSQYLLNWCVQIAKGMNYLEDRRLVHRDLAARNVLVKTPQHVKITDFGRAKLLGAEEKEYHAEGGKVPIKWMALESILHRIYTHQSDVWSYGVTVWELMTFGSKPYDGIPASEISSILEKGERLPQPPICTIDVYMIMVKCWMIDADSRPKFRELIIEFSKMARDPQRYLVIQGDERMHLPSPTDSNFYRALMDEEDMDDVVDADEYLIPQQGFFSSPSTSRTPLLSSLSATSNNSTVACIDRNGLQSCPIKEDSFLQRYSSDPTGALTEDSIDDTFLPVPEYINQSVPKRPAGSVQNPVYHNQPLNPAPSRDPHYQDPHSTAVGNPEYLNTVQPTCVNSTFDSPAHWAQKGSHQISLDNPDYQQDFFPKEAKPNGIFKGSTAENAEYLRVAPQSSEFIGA
Summary of the method: as §1

FGFR2 = target: T4, FGFR2 (Homo sapiens, UniProt P21802); assay: In vitro kinase assay (Z'-LYTE, Invitrogen); format: biochemical; conditions: compound at 100 nM, ATP Km apparent, read-out: % of inhibition of the kinase compared to the control
T4 construct: purchased Invitrogen
T4 sequence (P21802 22-821): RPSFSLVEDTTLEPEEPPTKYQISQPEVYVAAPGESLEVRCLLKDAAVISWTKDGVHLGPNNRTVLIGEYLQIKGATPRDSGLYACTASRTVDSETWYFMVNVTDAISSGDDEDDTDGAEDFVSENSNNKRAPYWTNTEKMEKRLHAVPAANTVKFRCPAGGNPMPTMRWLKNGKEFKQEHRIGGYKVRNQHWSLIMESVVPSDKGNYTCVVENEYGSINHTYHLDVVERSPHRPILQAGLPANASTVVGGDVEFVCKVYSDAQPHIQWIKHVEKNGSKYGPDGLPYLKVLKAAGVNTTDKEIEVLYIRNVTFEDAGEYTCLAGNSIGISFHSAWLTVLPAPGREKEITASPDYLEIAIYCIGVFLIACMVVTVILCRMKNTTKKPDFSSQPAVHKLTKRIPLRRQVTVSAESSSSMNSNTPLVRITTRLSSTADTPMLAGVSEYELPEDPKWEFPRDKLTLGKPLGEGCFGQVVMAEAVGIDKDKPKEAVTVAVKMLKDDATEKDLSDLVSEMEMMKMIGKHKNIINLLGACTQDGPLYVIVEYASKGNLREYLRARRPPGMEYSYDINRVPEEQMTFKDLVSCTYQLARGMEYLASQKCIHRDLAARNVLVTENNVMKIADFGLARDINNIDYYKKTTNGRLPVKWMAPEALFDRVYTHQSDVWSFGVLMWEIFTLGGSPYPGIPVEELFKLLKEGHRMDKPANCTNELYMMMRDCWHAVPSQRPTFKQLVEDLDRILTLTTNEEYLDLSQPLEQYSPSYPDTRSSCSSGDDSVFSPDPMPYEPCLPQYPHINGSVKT
Summary of the method: as §1

KDR (VEGFR2) = target: T5, KDR (VEGFR2) (Homo sapiens, UniProt P35968); assay: In vitro kinase assay (Z'-LYTE, Invitrogen); format: biochemical; conditions: compound at 100 nM, ATP Km apparent, read-out: % of inhibition of the kinase compared to the control
T5 construct: purchased Invitrogen
Summary of the method: as §1

PDGFRA (PDGFR alpha) = target: T6, PDGFRA (PDGFR alpha) (Homo sapiens, UniProt P16234); assay: In vitro kinase assay (Z'-LYTE, Invitrogen); format: biochemical; conditions: compound at 100 nM, ATP Km apparent, read-out: % of inhibition of the kinase compared to the control
T6 construct: purchased Invitrogen
Summary of the method: as §1

SRC = target: T7, SRC (Homo sapiens, UniProt P12931); assay: In vitro kinase assay (Z'-LYTE, Invitrogen); format: biochemical; conditions: compound at 100 nM, ATP Km apparent, read-out: % of inhibition of the kinase compared to the control
T7 construct: purchased Invitrogen
T7 sequence (P12931 whole entry): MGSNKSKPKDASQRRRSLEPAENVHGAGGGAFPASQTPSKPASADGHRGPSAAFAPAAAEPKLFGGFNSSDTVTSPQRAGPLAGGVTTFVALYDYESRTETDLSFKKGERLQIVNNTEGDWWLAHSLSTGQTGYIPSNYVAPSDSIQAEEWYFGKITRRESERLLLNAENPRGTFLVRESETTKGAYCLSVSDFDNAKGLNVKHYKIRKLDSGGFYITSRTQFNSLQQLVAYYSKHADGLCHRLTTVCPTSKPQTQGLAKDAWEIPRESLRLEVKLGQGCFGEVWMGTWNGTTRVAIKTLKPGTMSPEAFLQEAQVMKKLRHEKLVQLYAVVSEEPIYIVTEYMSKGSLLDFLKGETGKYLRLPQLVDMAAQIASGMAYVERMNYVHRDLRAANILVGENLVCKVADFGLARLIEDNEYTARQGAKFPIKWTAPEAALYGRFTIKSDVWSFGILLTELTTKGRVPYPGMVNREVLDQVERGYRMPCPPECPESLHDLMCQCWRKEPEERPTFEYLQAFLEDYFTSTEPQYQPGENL
Summary of the method: as §1

A549 cell line = assay: In vitro cell proliferation assay (MTT); format: cell-based; conditions: Homo sapiens, A549, 72 h, EC50 ≧ 1 μM, read-out: EC50, anti-proliferative activity
Summary of the method: (§2)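 Duplicate 72 hr treatments spanning 10 nM–3 μM compound preceded MTT measurement of growth. Sigmoidal fitting yielded EC50, with normalization against DMSO controls set at 0% and 1% SDS controls set at 100%.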

H1975 cell line = assay: In vitro cell proliferation assay (MTT); format: cell-based; conditions: Homo sapiens, NCI-H1975, H1975, 72 hr, read-out: EC50, anti-proliferative activity
Summary of the method: as §2

HT29 cell line = assay: In vitro cell proliferation assay (MTT); format: cell-based; conditions: Homo sapiens, HT-29, HT29, 72 hr, EC50 ≧ 1 μM, read-out: EC50, anti-proliferative activity
Summary of the method: as §2

HUVEC cells = assay: In vitro cell proliferation assay (MTT); format: cell-based; conditions: Homo sapiens, 72 hr, 100 nM < EC50 < 1 μM, read-out: EC50, anti-proliferative activity
Summary of the method: as §2

HepG2 cell line = assay: In vitro cell proliferation assay (MTT); format: cell-based; conditions: Homo sapiens, HepG2, 72 hr, EC50 ≧ 1 μM, read-out: EC50, anti-proliferative activity
Summary of the method: as §2

HuCCT1 cell line = assay: In vitro cell proliferation assay (MTT); format: cell-based; conditions: Homo sapiens, HuCCT-1, HuCCT1, 72 hr, read-out: EC50, anti-proliferative activity
Summary of the method: as §2

HuH6 Clone 5 cell line = assay: In vitro cell proliferation assay (MTT); format: cell-based; conditions: HUH-6-clone5, HuH6 Clone 5, 72 hr, EC50 ≧ 1 μM, read-out: EC50, anti-proliferative activity
Summary of the method: as §2

HuH7 cell line = assay: In vitro cell proliferation assay (MTT); format: cell-based; conditions: Homo sapiens, Huh-7, HuH7, 72 hr, read-out: EC50, anti-proliferative activity
Summary of the method: as §2

SMILES	inhibition at 0.1 µM (BRAF) [%]	inhibition at 0.1 µM (EGFR (ErbB1)) [%]	inhibition at 0.1 µM (EGFR (ErbB1) T790M L858R) [%]	inhibition at 0.1 µM (FGFR2) [%]	inhibition at 0.1 µM (KDR (VEGFR2)) [%]	inhibition at 0.1 µM (PDGFRA (PDGFR alpha)) [%]	inhibition at 0.1 µM (SRC) [%]	EC50 (A549 cell line) [nM]	EC50 (H1975 cell line; EC50 ≧ 1 μM) [nM]	EC50 (HT29 cell line) [nM]	EC50 (HUVEC cells) [nM]	EC50 (HepG2 cell line) [nM]	EC50 (HuCCT1 cell line; EC50 ≧ 1 μM) [nM]	EC50 (HuH6 Clone 5 cell line) [nM]	EC50 (HuH7 cell line; EC50 ≧ 1 μM) [nM]	EC50 (H1975 cell line; 100 nM < EC50 < 1 μM) [nM]	EC50 (HuCCT1 cell line; 100 nM < EC50 < 1 μM) [nM]	EC50 (HuH7 cell line; 100 nM < EC50 < 1 μM) [nM]
COC(=O)c1cc2cc(CNc3cc(NC(=O)c4ccc(CN5CCN(C)CC5)c(C(F)(F)F)c4)ccc3C)cnc2[nH]1 [OR0747, 5-({2-Methyl-5-[4-(4-methyl-piperazin-1-ylmethyl)-3-trifluoromethyl-benzoylamino]-phenylamino}-methyl)-1H-pyrrolo[2,3-b]pyridine-2-carboxylic acid methyl ester]	< 50	≥ 50	< 50	≥ 50	≥ 50	≥ 50	≥ 50	≥ 1000	≥ 1000	≥ 1000	100 to 1000	≥ 1000	≥ 1000					
CC(=O)c1cc2cc(CCc3cc(NC(=O)c4cncc(C(F)(F)F)c4)ccc3C)cnc2[nH]1 [OR0800, N-{3-[2-(2-Acetyl-1H-pyrrolo[2,3-b]pyridin-5-yl)-ethyl]-4-methyl-phenyl}-5-trifluoromethyl-nicotinamide]	≥ 50	< 50		< 50	≥ 50	≥ 50	≥ 50				100 to 1000	≥ 1000	≥ 1000	≥ 1000	≥ 1000			
COC(=O)c1cc2cc(COc3cc(NC(=O)c4ccc(CN5CCC(N(C)C)C5)c(C(F)(F)F)c4)ccc3C)cnc2[nH]1 (centres unmarked) [OR0750, 5-{5-[4-(3-Dimethylamino-pyrrolidin-1-ylmethyl)-3-trifluoromethyl-benzoylamino]-2-methyl-phenoxymethyl}-1H-pyrrolo[2,3-b]pyridine-2-carboxylic acid methyl ester]	< 50	≥ 50	< 50	≥ 50	≥ 50	≥ 50	≥ 50	≥ 1000		≥ 1000	100 to 1000	≥ 1000	≥ 1000			100 to 1000		
CC(=O)c1cc2cc(CCc3cc(NC(=O)c4ccc(CN5CCN(C)CC5)cc4)ccc3C)cnc2[nH]1 [OR0799, N-{3-[2-(2-Acetyl-1H-pyrrolo[2,3-b]pyridin-5-yl)-ethyl]-4-methyl-phenyl}-4-(4-methyl-piperazin-1-ylmethyl)-benzamide]	≥ 50	≥ 50		< 50	≥ 50	≥ 50	≥ 50				100 to 1000	≥ 1000		≥ 1000			100 to 1000	100 to 1000
COC(=O)c1cc2cc(CNC(=O)c3cc(NC(=O)c4ccc(CN5CCC(N(C)C)C5)c(C(F)(F)F)c4)ccc3C)cnc2[nH]1 (centres unmarked) [OR0726, 5-({5-[4-(3-Dimethylamino-pyrrolidin-1-ylmethyl)-3-trifluoromethyl-benzoylamino]-2-methyl-benzoylamino}-methyl)-1H-pyrrolo[2,3-b]pyridine-2-carboxylic acid methyl ester]	< 50	< 50	< 50	< 50	< 50	< 50	< 50											
CC(=O)c1cc2cc(C(=O)Nc3cc(NC(=O)c4cc(-n5cnc(C)c5)cc(C(F)(F)F)c4)ccc3C)cnc2[nH]1 [OR0723, 2-Acetyl-1H-pyrrolo[2,3-b]pyridine-5-carboxylic acid {2-methyl-5-[3-(4-methyl-imidazol-1-yl)-5-trifluoromethyl-benzoylamino]-phenyl}-amide]	< 50	≥ 50	< 50	< 50	< 50	< 50	< 50											
